According to patent US7601494B2, “Method of screening candidate compounds for susceptibility to biliary excretion” (The University of North Carolina at Chapel Hill, priority 1999, dated 2009):

Columns and labels:
[1] = Biliary excretion in bile duct cannulated rats after administration of [14C]264W94 / [14C]2169W94; format: in vivo, rat
Experimental: Male Wistar rats (250-280 g) from Charles River Laboratory (Raleigh, N.C.) were used as liver donors. Rats were housed individually in stainless-steel cages in a constant alternating 12-hr light and dark cycle at least 1 week before the study was performed, and were fed ad libitum until use. Bile duct cannulated rats (200-250 g) were obtained from Charles River (Raleigh, N.C.). The Institutional Animal Care and Use Committee at the University of North Carolina at Chapel Hill, Chapel Hill, N.C., approved all procedures.
[^14C]264W94 was formulated as a solution in a mixture of sterile water/polypropylene glycol 400/ethanol (2:1:1 v/v/v) at a concentration of 0.125 mg/mL. Following collection of pre-dose bile, [^14C]264W94 solution was administrated by caudal vein injection (0.1 mg/kg). For the 2169W94 studies, [^14C]2169W94 was prepared as a suspension at a concentration of 0.1 mg/mL in 0.5% (w/v) methylcellulose in water. Following collection of pre-dose bile, [^14C]2169W94 suspension was administrated by gavage (1.0 mg/kg). All rats were placed into individual plastic metabolism cages that allowed the rats unrestrained movement. Bile was collected into polypropylene containers surrounded by ice. For the 264W94 studies, the bile container was changed at 8 and 24 hours after the dose. […] Bile samples were stored at −20° C. until analysis.
Aliquots of cell lysate or bile samples containing 264W94 or 2169W94 were mixed with 2-fold volumes of ice-chilled acetonitrile, and centrifuged to remove precipitated proteins. The supernatant was evaporated under nitrogen at room temperature, and reconstituted in 100 μL of a 70/30 mixture of 50 mM ammonium acetate/acetonitrile/trifluoroacetic acid (95:5:0.1 v:v:v) and acetonitrile. […]
Radiocarbon that eluted from the HPLC was quantified with an on-line radioactivity detector (RADIOMATIC FLO-ONE/BETA™ Radio-Chromatography Detector Series 500 TR Series, Packard Instrument Co.). […] The concentration of the three components was determined by normalizing the eluted radioactivity in each peak to the total injected radioactivity.

[2] = test system: short-term cultured hepatocytes; assay: Cumulative uptake in 3-hr (short-term) cultured hepatocyte monolayers, standard vs Ca2+-free buffer; format: in vitro ADME, rat; settings: 3-hr cultured hepatocytes
Experimental: Hepatocytes were isolated with a two-step perfusion method. Briefly, rats were anesthetized with ketamine and xylazine (60 and 12mg/kg i.p., respectively) prior to portal vein cannulation. The liver was perfused in situ with oxygenated Ca^2+-free Krebs-Henseleit bicarbonate buffer containing collagenase type 1 (0.5 mg/ml) for 10 min. The hepatic capsule was removed with forceps. The hepatocytes were released by shaking the liver gently in 100 ml DMEM.
The released cells were filtered through a sterile nylon mesh (70-μm). The hepatocyte suspensions were centrifuged at 50 xg for 3 min. The cell pellet was resuspended in 25 ml DMEM and an equal volume of 90% isotonic polyvinylpyrrolidone-coated silica colloid centrifugation medium (pH 7.4) sold under the registered trademark PERCOLL® by Pharmacia, Inc. of Piscataway, N.J. The resulting cell suspension was centrifuged at about 70 to about 150 xg for 5 min. The pellet was resuspended in 50 ml DMEM and the cell suspensions were combined into one tube followed by centrifugation at 50 xg for 3 min. Hepatocyte viability was determined by trypan blue exclusion. Only those hepatocyte preparations with viability greater than 90% were utilized for further studies.
Hepatocyte suspensions were prepared with DMEM containing 5% fetal calf serum, 1 μM dexamethasone and 4 mg/L insulin. Hepatocyte suspensions were added to the precoated dishes at a density of about 2-3×10^6 cells/60-mm dish. Approximately 1 hr after plating the cells, the medium was aspirated and 3-ml fresh DMEM was added. For transport studies, hepatocytes that had been seeded for 3-5 hr without collagen overlay were defined as 3-hr or short-term cultured hepatocytes.
(§1) Hepatocytes cultured in a collagen-sandwich configuration were incubated in 3 ml standard buffer or Ca^2+-free buffer at 37° C. for 10 min. After removing the incubation buffer, uptake was initiated by addition of 3 ml standard buffer containing substrate to each dish. After incubation for designated times, cumulative uptake was terminated by aspirating the incubation solution and rinsing 4 times with 3 ml ice-cold standard buffer to remove extracellular substrate. After washing, 2 ml of 1% Triton X-100 solution was added to culture dishes, and the cells were lysed by shaking the dish on a shaker for 20 min at room temperature. An aliquot (1 ml) of lysate was analyzed by liquid scintillation spectrometry. Bio-Rad DC Protein Assay Kit (Bio-Rad Laboratories, Hercules, Calif.) was used to determine the protein concentration in the culture extracts using bovine serum albumin as standard. […] All values for substrate uptake into cell monolayers were corrected for nonspecific binding to the collagen by subtracting the substrate uptake determined in the appropriate control dishes in the absence of cells as described previously.
(§2) Uptake data were normalized to the protein content and expressed as mean±SD from 3-4 separate preparations of hepatocytes. Statistical differences between mean values for the 10-min cumulative substrate uptake in the presence and absence of Ca^2+ were determined by the use of the well-known Student's t-test. A P value of <0.05 was considered significant.

[3] = test system: hepatic cytochrome p450 isozymes; settings: Silver et al. 1996; cited from earlier work
[4] = test system: sandwich-cultured hepatocytes; assay: Cumulative uptake, Biliary Excretion Index and in vitro biliary clearance in 96-hr sandwich-cultured hepatocytes; format: in vitro ADME, rat
Experimental: To prepare sandwich-cultured hepatocytes, neutralized collagen solution (0.1 ml, about 1.5 to about 3.0 mg/ml, pH 7.4) was added to the monolayers 24 hr after the cells were seeded. […] Medium was changed on a daily basis until the fourth day after the cells were seeded. These hepatocytes were referred to as 96-hr or long-term cultured hepatocytes.
as §1, §2
Biliary excretion of substrates in the monolayers was quantitatively assessed by the Biliary Excretion Index based on Equation 3:
[formula] where Uptakestandard and Uptake Ca^2+-free represent the cumulative uptake of substrate over a 10-min interval in the hepatocyte monolayers pre-incubated in standard buffer and in Ca^2+-free buffer, respectively.
Biliary clearance in the sandwich-cultured hepatocytes, ClB(culture) (ml/min/kg per body weight), was calculated according to Equation 4:
[formula] where Timeincubation was 10 min and Concentrationmedium represented the initial substrate concentration in the incubation medium. In some embodiments, a biliary clearance value can be calculated as the ratio of the mass in the bile canaliculi and the area under the curve (AUC) in culture medium, wherein the AUC represents the integral of candidate compound (e.g. xenobiotic concentration) in the medium from time 0 to time T (time can be measure in any desired units, and is usually measured in minutes). Indeed, the term AUC can refer to the following equation: […]

[5] = test system: sandwich-cultured hepatocytes; assay: HPLC analysis of 10-min cell lysate of 96-hr sandwich-cultured hepatocytes; format: in vitro ADME, rat; settings: 96-hr hepatocytes incubated with 3 μM [14C]264W94, 10 min
Experimental: Aliquots of cell lysate or bile samples containing 264W94 or 2169W94 were mixed with 2-fold volumes of ice-chilled acetonitrile, and centrifuged to remove precipitated proteins. The supernatant was evaporated under nitrogen at room temperature, and reconstituted in 100 μL of a 70/30 mixture of 50 mM ammonium acetate/acetonitrile/trifluoroacetic acid (95:5:0.1 v:v:v) and acetonitrile. The sample extracts were injected onto a WATERS™ […]™ C18 column (3.9×150 mm) and eluted by a 85/15 mixture of 50 mM ammonium acetate (pH 4.0) and acetonitrile; the percentage of acetonitrile was increased by a WATERS™ 600E System Controller to 55% over a period of 20 minutes, and then to 100% during the next 10 minutes.
Radiocarbon that eluted from the HPLC was quantified with an on-line radioactivity detector (RADIOMATIC FLO-ONE/BETA™ Radio-Chromatography Detector Series 500 TR Series, Packard Instrument Co.). The peaks of 264W94, 2169W94, and 2169W94 glucuronide were identified by comparing with purified standard compound. Under these conditions, baseline separation of these three components was achieved. The concentration of the three components was determined by normalizing the eluted radioactivity in each peak to the total injected radioactivity. […]

Structure (SMILES): CCCC[C@]1(CC)CS(=O)(=O)c2cc(OC)c(OC)cc2[C@@H](c2ccccc2)N1 [264W94, (3R, 5R)-3-butyl-3-ethyl-2,3,4,5-tetrahydro-7,8-dimethoxy-5-phenyl-1,4-benzothiazepine-1,1-dioxide]
- biliary excretion in rats (in words) ([1]; in vivo): negligible biliary excretion
- detection in bile in 24 hr ([1]; rats, i.v. [14C]264W94 0.24 μmol/kg): neither 264W94 nor 2169W94 was detected
- total administered radioactivity recovered in bile ([1]; rats, oral administration 2.4 μmol/kg, in 8 hr, n=2): 66.4%
- cumulative uptake in standard buffer compared to Ca2+-free buffer [2]: similar
- cytochrome p450 isozyme primarily involved in the metabolism [3]: CYP3A4
- cumulative uptake in standard buffer compared to Ca2+-free buffer ([4]; 96-hr cultured hepatocytes): not significantly different
- biliary excretion in long-term sandwich-cultured hepatocytes (in words) ([4]; 96-hr sandwich-cultured hepatocytes): lack of biliary excretion
- share of total radioactivity in cell lysate [5]: 73.0%
